From patent US9284296B2, “Bipyridine sulfonamide derivatives for the treatment of neurodegenerative diseases or conditions” (AUBERGINE PHARMACEUTICALS LLC, priority 2010, dated 2016)

Legend:
Assay type in all cases: cell-based
[1] = system: secretion of soluble amyloid precursor protein-α (sAPPα); experiment: Stimulation of sAPPα secretion (CHO7w cells stably transfected with human APP, AlphaLISA); conditions: for EC50 / Emax: Homo sapiens, CHO-7W, CHO7w cells, 24 h incubation, range stated for the listed compounds together; for Emax: read-out: maximum effect (sAPPα secretion)
Protocol: The effect of the compounds on the stimulation of the secretion of soluble amyloid precursor protein-α (sAPPα) was determined by measuring the levels of this protein in cell supernatants after incubating the cells with several concentrations of the tested compound. A CHO7w cell line, stably transfected with human APP, was used. Cells were dispensed in 96-well culture plates (5,000 cells/well) and grown in DMEM supplemented with 2% (v/v) foetal bovine serum, 100 U/ml penicillin, 100 μg/ml streptomycin, 2 mM L-glutamine and 200 μg/ml G418 in the presence of several concentrations of the tested compound which had been previously dissolved in DMSO (1% (v/v) DMSO final concentration). After 24 h of incubation 5 μl of the culture supernatants were withdrawn and their sAPPα. concentration was measured with a commercial kit (AlphaLISA® Amyloid Precursor Protein-α Secreted Research kit, PerkinElmer, Waltham, Mass., USA) following manufacturer's instructions. In the culture plate several wells were included as a control for background sAPPα secretion, in these wells the cells were incubated with 1% (v/v) DMSO. The results obtained for each tested sample were normalized by using the following equation:
[formula] where “S” is the sAPPα concentration of the sample being considered, “B” is the average sAPPα concentration of wells used for background secretion and “M” is the sAPPα concentration of wells yielding the highest value. These normalized values obtained at every compound concentration were finally used to calculate the EC50 of the tested compound fitting them to a 4-parameters isotherm equation as already described. The average EC50s ranges are reported in Table 4 together with the maximum observed effect (and the concentration at which this effect was reached), this latter value was calculated for each compound according to the following equation:
[formula] with “M” and “B” as defined above.

[2] = system: SH-SY5Y human neuroblastoma cells; experiment: Protection against hydrogen peroxide-induced cell death; conditions: for EC50: Homo sapiens, SH-SY5Y cells, 1 h preincubation, 100 μM hydrogen peroxide, 24 h, LDH readout of live cells
Protocol: The aim of this assay is to determine the neuroprotective effect of the compounds when human neuroblastoma cells are exposed to the oxidative stress induced by hydrogen peroxide, which leads to cell death. Therefore the protective effect of the compounds was measured by monitoring cell survival using a suitable commercial kit (Cytotoxicity Detection Kit, Roche Diagnostics GmbH, Mannheim, Germany) based on the quantification of the lactate dehydrogenase activity obtained from lysates of the remaining live cells with a colorimetric assay yielding absorbance at 492 nm as the final readout.
SH-SY5Y human neuroblastoma cells were seeded into 96-well culture plate at a density of 10,000 cells/well. Cells were preincubated for one hour with different concentrations of the compound at a 1% (v/v) DMSO concentration in an equivolumetric mixture of Minimum Essential Medium (MEM) and Nutrient Mixture HAM F12 supplemented with 10% foetal bovine serum, 100 U/ml penicillin, 100 μg/ml streptomycin, 1 mM each of non-essential aminoacids (commercial preparation from GIBCO, Paisley, UK) and 2 mM L-glutamine. Hydrogen peroxide was then added to reach 100 μM and the incubation was extended for 24 h. Then the medium was removed and live cells, which remained attached to the bottom of the plate, were lysed by incubating them during 5 min with 50 μl of 1% (v/v) Triton X-100 in Krebs-Hepes buffer (10 mM Hepes pH7.3 with 145 mM NaCl, 5.5 mM KCl, 1 mM MgCl2, 2 mM CaCl2 and 1 mM glucose). This lysate was used to measure LDH activity using the commercial kit according to the manufacturer's instructions. In the culture plate several wells were included as a control of cell death, in these wells the cells were preincubated with 1% (v/v) DMSO before hydrogen peroxide addition. Likewise, several wells were included as control for full cell survival, in these wells the addition of H2O2 was omitted. The absorbance of each tested sample was normalized to that of the control wells, so that for every compound concentration the percentage of protective effect was calculated with the following equation:
[formula] where “S” is the absorbance of the sample being considered, “E” is the average absorbance of wells used as control of full cell survival and “B” is the average absorbance of wells used as control of cell death. The values obtained at every compound concentration were finally used to calculate the EC50 (i.e., the concentration causing 50% of protective effect) of the tested compound. For that purpose the data were fitted to a classical 4-parameters isotherm equation using the nonlinear regression function of GraphPad™ Prism 5.0 (GraphPad Software Inc.), such equation is described below:
[formula] where “L” is the lower asymptote of the theoretical sigmoidal curve, “H” is the higher asymptote, “C” is the concentration of compound and “n” is the Hill coefficient.

[3] = system: secretion of amyloid peptide β1-40 (Aβ1-40); experiment: Inhibition of β-amyloid secretion (CHO7w cells stably transfected with human APP, ELISA); conditions: CHO-7W, 24 h incubation, range stated for the listed compounds together
Protocol: The inhibition caused by the compounds on the secretion of amyloid peptide β1-40 (Aβ1-40) was determined by measuring the levels of this peptide in cell supernatants after incubating the cells with several concentrations of the tested compound. A CHO7w cell line, stably transfected with human amyloid precursor protein (APP), was used. Cells were dispensed in 96-well culture plates (5,000 cells/well) and grown in DMEM supplemented with 2% (v/v) foetal bovine serum, 100 U/ml penicillin, 100 μg/ml streptomycin, 2 mM L-glutamine and 200 μg/ml G418 in the presence of several concentrations of the tested compound which had been previously dissolved in DMSO (1% (v/v) DMSO final concentration). After a 24 h incubation the amount of Aβ1-40 secreted to the medium was measured with an ELISA-based commercial kit (Human Amyloid β-40 ELISA High Sensitivity Kit, Millipore, Billerica, Mass., USA) using absorbance at 450 nm as the final readout. In the culture plate several wells were included as a control for lack of Aβ1-40 secretion, in these wells the cells were incubated in the presence of 16% (v/v) DMSO to inhibit cell growth therefore abolishing Aβ1-40 secretion. Likewise, several wells were also included as a control for full Aβ1-40 secretion, in these wells the cells were grown in the presence of 1% (v/v) DMSO. The absorbance of each tested sample was normalized to that of the control wells, so that for every compound concentration the percentage of inhibition was calculated with the following equation:
[formula] where “S” is the absorbance of the sample being considered, “E” is the average absorbance of wells lacking Aβ1-40 secretion and “B” is the average absorbance of wells with full Aβ1-40 secretion. The inhibition values obtained at every compound concentration were fitted to a 4-parameters isotherm equation, as described above, to calculate the […] (i.e., the concentration causing 50% of inhibition of Ab1-40 secretion).

[4] = comparison among tested compounds

EC50 [1] [µM]	IC50 [3] [µM]	SMILES	Emax [1] [%]	EC50 [2] [µM]	rank of maximum effect among compounds tested (sAPPα secretion) [1, 4]	rank of concentration at which maximum effect was reached (sAPPα secretion) [1, 4]	rank of activity among compounds assayed (protection against hydrogen peroxide) ([2]; comparison within Table 2)
0.5 to 11	–	COc1cc(CNS(=O)(=O)c2ccccc2)nc(-c2ccccn2)c1 [Compound 6, N-(4-Methoxy-[2,2′]bipyridinyl-6-ylmethyl)-benzenesulfonamide]	250 to 500	1.58	–	–	–
0.5 to 11	–	COc1cc(CNS(=O)(=O)c2ccc(F)c(C#N)c2)nc(-c2ccccn2)c1 [Compound 14, 3-Cyano-4-fluoro-N-(4-methoxy-[2,2′]bipyridinyl-6-ylmethyl)-benzenesulfonamide]	250 to 500	1.6	–	–	–
0.5 to 11	0.3 to 42	COc1cc(CNS(=O)(=O)c2ccc(Cl)s2)nc(-c2ccccn2)c1 [Compound 2, 5-Chloro-thiophene-2-sulfonic acid (4-methoxy-[2,2′]bipyridinyl-6-ylmethyl)-amide]	250 to 500	0.8	maximum effect was obtained	–	–
0.5 to 11	–	CCN(CC)CCOc1cc(CNS(=O)(=O)c2cccs2)nc(-c2ccccn2)c1 [Compound 28, Thiophene-2-sulfonic acid [4-(2-diethylamino-ethoxy)-[2,2′]bipyridinyl-6-ylmethyl]-amide]	250 to 500	1.16	–	–	–
0.5 to 11	0.3 to 42	COc1cc(CNS(=O)(=O)c2cc(Cl)sc2Cl)nc(-c2ccccn2)c1 [Compound 19, 2,5-Dichloro-thiophene-3-sulfonic acid (4-methoxy-[2,2′]bipyridinyl-6-ylmethyl)-amide]	250 to 500	1.3	–	–	–
0.5 to 11	–	COc1cc(CNS(=O)(=O)c2cccs2)nc(-c2ccccn2)c1 [Compound 8]	250 to 500	0.09	–	maximum effect at the lowest concentration	most active compound
0.5 to 11	–	COc1cc(CNS(=O)(=O)c2ccc(F)cc2)nc(-c2ccccn2)c1 [Compound 11, 4-Fluoro-N-(4-methoxy-[2,2′]bipyridinyl-6-ylmethyl)-benzenesulfonamide]	250 to 500	1.3	–	–	–
0.5 to 11	0.3 to 42	CS(=O)(=O)c1cc(CNS(=O)(=O)c2ccc(Cl)s2)nc(-c2ccccn2)c1 [Compound 33, 5-Chloro-thiophene-2-sulfonic acid (4-methanesulfonyl-[2,2′]bipyridinyl-6-ylmethyl)-amide]	250 to 500	1.02	–	–	–
0.5 to 11	–	COc1cc(CNS(=O)(=O)c2ccc(C(C)=O)cc2)nc(-c2ccccn2)c1 [Compound 9]	250 to 500	6.1	–	–	–
0.5 to 11	0.3 to 42	COc1cc(CNS(=O)(=O)c2cc(F)cc(F)c2)nc(-c2ccccn2)c1 [Compound 10]	250 to 500	1.17	–	–	–
–	0.3 to 42	COc1cc(CNS(=O)(=O)c2cc(Cl)ccc2Cl)nc(-c2ccccn2)c1 [Compound 100]	–	1.04	–	–	–
–	0.3 to 42	COc1cc(CNS(=O)(=O)CC(F)(F)F)nc(-c2ccccn2)c1 [Compound 82]	–	0.5	–	–	–
–	0.3 to 42	COc1cc(CN(S(=O)(=O)c2ccc(Cl)s2)S(=O)(=O)c2ccc(Cl)s2)nc(-c2ccccn2)c1 [Compound 26]	–	4.6	–	–	–
–	0.3 to 42	COc1cc(CNS(=O)(=O)c2ccc(C(F)(F)F)cc2)nc(-c2ccccn2)c1 [Compound 4, N-(4-Methoxy-[2,2′]bipyridinyl-6-ylmethyl)-4-trifluoromethyl-benzenesulfonamide]	–	2.6	–	–	–
–	0.3 to 42	COc1cc(CNS(=O)(=O)c2ccc(-c3cnco3)s2)nc(-c2ccccn2)c1 [Compound 55]	–	1.3	–	–	–
0.5 to 11	–	COc1cc(CNS(=O)(=O)c2ccc(C#N)cc2)nc(-c2ccccn2)c1 [Compound 13, 4-Cyano-N-(4-methoxy-[2,2′]bipyridinyl-6-ylmethyl)-benzenesulfonamide]	250 to 500	1.5	–	–	–
–	0.3 to 42	COc1cc(CNS(=O)(=O)c2ccc(C)s2)nc(-c2ccccn2)c1 [Compound 24, 5-Methyl-thiophene-2-sulfonic acid (4-methoxy-[2,2′]bipyridinyl-6-ylmethyl)-amide]	–	3.46	–	–	–
0.5 to 11	–	COc1cc(CNS(=O)(=O)c2ccc(Br)s2)nc(-c2ccccn2)c1 [Compound 18, 5-Bromo-thiophene-2-sulfonic acid (4-methoxy-[2,2′]bipyridinyl-6-ylmethyl)-amide]	250 to 500	1.88	–	–	–
0.5 to 11	–	COc1cc(CNS(=O)(=O)c2cccc(F)c2)nc(-c2ccccn2)c1 [Compound 12, 3-Fluoro-N-(4-methoxy-[2,2′]bipyridinyl-6-ylmethyl)-benzenesulfonamide]	250 to 500	1.06	–	–	–
0.5 to 11	–	CCN(CC)CCOc1cc(CNS(=O)(=O)c2ccc(C)s2)nc(-c2ccccn2)c1 [Compound 32, 5-Methyl-thiophene-2-sulfonic acid [4-(2-diethylamino-ethoxy)-[2,2′]bipyridinyl-6-ylmethyl]-amide]	250 to 500	0.55	–	–	–
0.5 to 11	–	COc1cc(CNS(=O)(=O)c2ccc(Br)cc2)nc(-c2ccccn2)c1 [Compound 16, 4-Bromo-N-(4-methoxy-[2,2′]bipyridinyl-6-ylmethyl)-benzenesulfonamide]	250 to 500	3.2	–	–	–
